# From US11234939B2, “Dosage forms comprising a plasma kallikrein inhibitor” (KALVISTA PHARMACEUTICALS LIMITED, priority 2017, dated 2022)
# pIC50: −log10 of the molar value.
# Assays:
# [1] = Gravimetric Vapour Sorption (GVS) of Form 5; type: physicochemical; conditions: 0% to 95% RH
# Experimental: Form 5 is hygroscopic with a mass uptake of 23%, as determined by Gravimetric Vapour Sorption (GVS) studies. The GVS studies were performed using a Surface Measurement Systems Ltd. DVS-1 No Video, equipment #2126. The sample was loaded into a balance pan, typically 20-30 mg, and equilibrated at 0% RH. After the material was dried, the RH was increased with 10% per step for 1 hour per increment, ending at 95% RH. After completion of the sorption cycle, the sample was dried using the same method. The software used for data collection was DVSWin v3.01 No Video. Data analysis was performed using DVS Standard Analysis Suite v6.3.0 (Standard).
# [2] = Polymorph stability of Form 5; type: physicochemical; conditions: also on XRPD measurement
# [3] = system: rats; conditions: systemic administration; cited from earlier work
# [4] = Pharmacokinetic study, single oral dose in rats; type: in vivo; conditions: male, Sprague-Dawley, plasma; rat, po 10.1 mg/kg, vehicle TPGS solution (20% aq. w/v)
# Experimental: A pharmacokinetic study of the compound of Formula A was performed to assess the pharmacokinetics following a single oral dose in male Sprague-Dawley rats. Two rats were given a single po dose of 5 mL/kg of a nominal 2 mg/mL (10 mg/kg) composition of test compound in vehicle. Following dosing, blood samples were collected over a period of […]. Sample times were 5, 15 and 30 minutes then 1, 2, 4, 6, 8 and 12 hrs. Following collection, blood samples were centrifuged and the plasma fraction analysed for concentration of test compound by LCMS.
# [5] = biological target: T1, Human FXIa (Homo sapiens, UniProt P03951); test: Determination of the % Inhibition for FXIa; type: biochemical; conditions: 40 μM test compound, 25° C.
# T1 construct: purchased Enzyme Research Laboratories
# Experimental: (§1) FXIa inhibitory activity in vitro was determined using standard published methods (see e.g. Johansen et al., Int. J. Tiss. Reac. 1986, 8, 185; Shori et al., Biochem. Pharmacol., 1992, 43, 1209; Sturzebecher et al., Biol. Chem. Hoppe-Seyler, 1992, 373, 1025). Human FXIa (Enzyme Research Laboratories) was incubated at 25° C. with the fluorogenic substrate Z-Gly-Pro-Arg-AFC and 40 μM of the test compound. Residual enzyme activity (initial rate of reaction) was determined by measuring the change in optical absorbance at 410 nm.
# [6] = biological target: T2, Human KLK1 (Homo sapiens, UniProt P06870); test: Determination of the IC50 for KLK1; type: biochemical; conditions: 25° C., substrate H-DVal-Leu-Arg-AFC
# T2 construct: purchased Callbiochem
# Experimental: as §1, with “KLK1” for “FXIa”, “Stürzebecher” for “Sturzebecher”, “KLK1 (Callbiochem)” for “FXIa (Enzyme Research Laboratories)”, “H-DVal-Leu-Arg-AFC” for “Z-Gly-Pro-Arg-AFC”, “various concentrations” for “40 μM”, “nm and the IC50 value for the test compound was determined.” for “nm.”
# [7] = system: LPS-induced disseminated intravascular coagulation; conditions: cited from earlier work
# [8] = Gravimetric Vapour Sorption (GVS) of Form 1; type: physicochemical
# Experimental: Gravimetric Vapour Sorption (GVS) data were collected using the following method: Approximately 10 mg of sample was placed into a wire-mesh vapour sorption balance pan and loaded into an ‘IgaSorp’ vapour sorption balance (Hiden Analytical Instruments). The sample was then dried by maintaining a 0% humidity environment until no further weight change was recorded. Subsequently, the sample was then subjected to a ramping profile from 0-90% RH at 10% RH increments, maintaining the sample at each step until equilibration had been attained (99% step completion). Upon reaching equilibration, the % RH within the apparatus was ramped to the next step and the equilibration procedure repeated. After completion of the sorption cycle, the sample was then dried using the same procedure. The weight change during the sorption/desorption cycles were then monitored, allowing for the hygroscopic nature of the sample to be determined.
# [9] = Slurry Studies; type: physicochemical; conditions: 90/10 IPA/water, ambient temperature, 72 hrs
# Experimental: Form 1 (20 mg) was suspended in 90/10 IPA/water […] and shaken at ambient temperature for 72 hrs. The supernatant was evaporated rather than filtered due to the small volume and the resulting solid was examined by XRPD (FIG. 5).
# [10] = Stability study of Form 1 on storage; type: physicochemical; conditions: for Change in XRPD diffractogram on storage: after 1 month and 3 months
# Experimental: A sample of Form 1 was packed in double polyethylene bags and sealed in a HDPE bottle and stored at conditions of 25° C./60% RH. The sample was reanalysed after 1 month and 3 months by XRPD (using Method B). No change in the XRPD diffractogram was observed when the sample was stored at 25° C./60% RH after either 1 month or 3 months.
# Further tests on the sample of Form 1 stored at 25° C./60% RH were carried out as described in Table 1:
# A second sample of Form 1 was packed in double polyethylene bags and sealed in a HDPE bottle and stored under accelerated stability conditions of 40° C./75% RH. The sample was reanalysed after 1 month and 3 months by XRPD (using Method B). No change in the XRPD diffractogram was observed when the sample was stored at 40° C./75% RH after either 1 month or 3 months.
# Further tests on the sample of Form 1 stored at 40° C./75% RH were carried out as described in Table 2: […]
# [11] = Visual Aqueous Solubility; type: physicochemical; conditions: thermodynamic from solid; 10 mg in 20 mL water
# Experimental: Form 1 (10 mg) was weighed into a glass vial and water was added in […] up to 3 mL then 1 mL portions thereafter. Solubility was assessed visually following a brief period of equilibration.
# [12] = system: blood; conditions: blood contacted with the inhibitor; cited from earlier work
# [13] = system: intrinsic pathway of coagulation; conditions: in vitro; cited from earlier work
# T2 sequence (P06870 25-262): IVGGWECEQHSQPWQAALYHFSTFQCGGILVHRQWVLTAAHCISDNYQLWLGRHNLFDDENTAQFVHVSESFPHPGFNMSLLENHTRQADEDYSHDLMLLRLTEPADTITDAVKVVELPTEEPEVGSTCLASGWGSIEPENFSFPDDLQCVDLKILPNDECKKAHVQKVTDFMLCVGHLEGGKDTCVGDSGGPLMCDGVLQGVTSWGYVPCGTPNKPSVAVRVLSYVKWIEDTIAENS
# T1 sequence (P03951 388-625 limits assumed): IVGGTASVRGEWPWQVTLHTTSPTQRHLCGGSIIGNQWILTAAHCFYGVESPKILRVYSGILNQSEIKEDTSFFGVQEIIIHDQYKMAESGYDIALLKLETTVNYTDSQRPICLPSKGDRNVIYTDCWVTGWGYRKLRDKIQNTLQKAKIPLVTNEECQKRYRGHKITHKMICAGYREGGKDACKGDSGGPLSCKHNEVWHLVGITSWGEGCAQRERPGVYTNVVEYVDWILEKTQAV
# T1 sequence (P03951 19-387 partner limits assumed): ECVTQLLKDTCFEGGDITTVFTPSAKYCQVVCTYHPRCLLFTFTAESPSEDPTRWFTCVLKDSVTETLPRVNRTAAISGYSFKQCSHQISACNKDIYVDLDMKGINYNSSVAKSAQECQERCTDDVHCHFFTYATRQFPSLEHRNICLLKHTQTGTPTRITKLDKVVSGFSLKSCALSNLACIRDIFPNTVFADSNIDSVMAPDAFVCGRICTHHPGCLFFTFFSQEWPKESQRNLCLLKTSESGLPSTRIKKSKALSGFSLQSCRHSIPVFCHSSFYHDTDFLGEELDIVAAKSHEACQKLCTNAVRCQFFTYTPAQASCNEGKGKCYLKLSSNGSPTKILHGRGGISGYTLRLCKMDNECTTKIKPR
compound,measurement,setting,value
"COCc1nn(Cc2ccc(Cn3ccccc3=O)cc2)cc1C(=O)NCc1nccc(OC)c1F [Form 5, N-[(3-Fluoro-4-methoxypyridin-2-yl)methyl]-3-(methoxymethyl)-1-({4-[(2-oxopyridin-1-yl)methyl]phenyl}methyl)pyrazole-4-carboxamide]",GVS (mass uptake %),[1],23%
same,Polymorph conversion over time,[2],converts into polymorph Form 3
N=C(N)c1ccc(CNC(=O)c2cnn(Cc3ccccc3)c2)cc1 [ASP-440],Hematoma expansion,[3],reduced
"COCc1nn(Cc2ccc(Cn3ccccc3=O)cc2)cc1C(=O)NCc1nccc(OC)c1F [compound of Formula A, N-[(3-fluoro-4-methoxypyridin-2-yl)methyl]-3-(methoxymethyl)-1-({4-[(2-oxopyridin-1-yl)methyl]phenyl}methyl)pyrazole-4-carboxamide]",Cmax,[4],1940 ng/mL
same,Tmax,[4],1.17 h
same,inhibition at 40 µM,[5],0%
same,pIC50,[6],< 4.40
Cl.NCC1CCC(C(=O)N[C@@H](Cc2ccccc2)C(=O)Nc2ccc(CC(=O)O)cc2)CC1 (some centres unmarked) [PKSI-527],Decrease in platelet count and fibrinogen level and increase in FDP level,[7],significantly suppressed
"COCc1nn(Cc2ccc(Cn3ccccc3=O)cc2)cc1C(=O)NCc1nccc(OC)c1F [Form 1, N-[(3-Fluoro-4-methoxypyridin-2-yl)methyl]-3-(methoxymethyl)-1-({4-[(2-oxopyridin-1-yl)methyl]phenyl}methyl)pyrazole-4-carboxamide]",%-Wt(dry basis),"[8]; adsorption, 0.0335 %-RH",0.04722%
same,%-Wt(dry basis),"[8]; adsorption, 9.9791 %-RH",0.23%
same,%-Wt(dry basis),"[8]; adsorption, 20.0169 %-RH",0.3541%
same,%-Wt(dry basis),"[8]; adsorption, 30.0091 %-RH",0.7126%
same,%-Wt(dry basis),"[8]; adsorption, 39.9998 %-RH",0.825%
same,%-Wt(dry basis),"[8]; adsorption, 49.991 %-RH",1.207%
same,%-Wt(dry basis),"[8]; adsorption, 59.9808 %-RH",1.699%
same,%-Wt(dry basis),"[8]; adsorption, 70.0195 %-RH",1.912%
same,%-Wt(dry basis),"[8]; adsorption, 80.0136 %-RH",2.186%
same,%-Wt(dry basis),"[8]; adsorption, 90.0039 %-RH",3.226%
same,%-Wt(dry basis),"[8]; desorption, 0.0335 %-RH",0.000368%
same,%-Wt(dry basis),"[8]; desorption, 4.9801 %-RH",0.1269%
same,%-Wt(dry basis),"[8]; desorption, 15.0203 %-RH",0.5017%
same,%-Wt(dry basis),"[8]; desorption, 25.0135 %-RH",0.7008%
same,%-Wt(dry basis),"[8]; desorption, 35.0052 %-RH",1.017%
same,%-Wt(dry basis),"[8]; desorption, 44.9954 %-RH",1.525%
same,%-Wt(dry basis),"[8]; desorption, 54.9837 %-RH",1.685%
same,%-Wt(dry basis),"[8]; desorption, 64.9759 %-RH",1.865%
same,%-Wt(dry basis),"[8]; desorption, 75.0151 %-RH",2.116%
same,%-Wt(dry basis),"[8]; desorption, 85.0063 %-RH",2.547%
same,Hygroscopicity (GVS),[8]; up to 70% relative humidity,absence of significant hygroscopicity
same,XRPD after slurry compared with FIG. 1a,[9],tendency to form hydrate(s)
same,Appearance,"[10]; 25° C./60% RH, 1 month",Off-white
same,Assay by HPLC (on an anhydrous and solvent free basis),"[10]; 25° C./60% RH, 1 month",99.5 % w/w
same,DSC Tonset,"[10]; 25° C./60% RH, 1 month",151.1 °C
same,DSC Tpeak,"[10]; 25° C./60% RH, 1 month",152.4 °C
same,HPLC assay (on an as is basis),"[10]; 25° C./60% RH, 1 month",99.4 % w/w
same,Purity by HPLC,"[10]; 25° C./60% RH, 1 month",99.62 area %
same,Solid form of compound A by XRPD,"[10]; 25° C./60% RH, 1 month",Conforms
same,Total impurities,"[10]; 25° C./60% RH, 1 month",0.38 area %
same,Water by Karl Fischer analysis,"[10]; 25° C./60% RH, 1 month",<0.1 % w/w
same,Appearance,"[10]; 25° C./60% RH, 3 months",Off-white
same,Assay by HPLC (on an anhydrous and solvent free basis),"[10]; 25° C./60% RH, 3 months",99.6 % w/w
same,DSC Tonset,"[10]; 25° C./60% RH, 3 months",150.8 °C
same,DSC Tpeak,"[10]; 25° C./60% RH, 3 months",152.2 °C
same,HPLC assay (on an as is basis),"[10]; 25° C./60% RH, 3 months",99.5 % w/w
same,Purity by HPLC,"[10]; 25° C./60% RH, 3 months",99.70 area %
same,Solid form of compound A by XRPD,"[10]; 25° C./60% RH, 3 months",Conforms
same,Total impurities,"[10]; 25° C./60% RH, 3 months",0.30 area %
same,Water by Karl Fischer analysis,"[10]; 25° C./60% RH, 3 months",<0.1 % w/w
same,Appearance,"[10]; 25° C./60% RH, Initial",Off-white
same,Assay by HPLC (on an anhydrous and solvent free basis),"[10]; 25° C./60% RH, Initial",101.0 % w/w
same,DSC Tonset,"[10]; 25° C./60% RH, Initial",151.3 °C
same,DSC Tpeak,"[10]; 25° C./60% RH, Initial",152.9 °C
same,HPLC assay (on an as is basis),"[10]; 25° C./60% RH, Initial",100.9 % w/w
same,Purity by HPLC,"[10]; 25° C./60% RH, Initial",99.70 area %
same,Solid form of compound A by XRPD,"[10]; 25° C./60% RH, Initial",Conforms
same,Total impurities,"[10]; 25° C./60% RH, Initial",0.30 area %
same,Water by Karl Fischer analysis,"[10]; 25° C./60% RH, Initial",<0.1 % w/w
same,Change in XRPD diffractogram on storage,[10]; 25° C./60% RH,no change
same,Appearance,"[10]; 40° C./75% RH, 1 month",Off-white
same,Assay by HPLC (on an anhydrous and solvent free basis),"[10]; 40° C./75% RH, 1 month",99.5 % w/w
same,DSC Tonset,"[10]; 40° C./75% RH, 1 month",151.1 °C
same,DSC Tpeak,"[10]; 40° C./75% RH, 1 month",152.3 °C
same,HPLC assay (on an as is basis),"[10]; 40° C./75% RH, 1 month",99.4 % w/w
same,Purity by HPLC,"[10]; 40° C./75% RH, 1 month",99.57 area %
same,Solid form of compound A by XRPD,"[10]; 40° C./75% RH, 1 month",Conforms to
same,Total impurities,"[10]; 40° C./75% RH, 1 month",0.43 area %
same,Water by Karl Fischer analysis,"[10]; 40° C./75% RH, 1 month",<0.1 % w/w
same,Appearance,"[10]; 40° C./75% RH, 3 months",Off-white
same,Assay by HPLC (on an anhydrous and solvent free basis),"[10]; 40° C./75% RH, 3 months",100.0 % w/w
same,DSC Tonset,"[10]; 40° C./75% RH, 3 months",150.6 °C
same,DSC Tpeak,"[10]; 40° C./75% RH, 3 months",152.5 °C
same,HPLC assay (on an as is basis),"[10]; 40° C./75% RH, 3 months",99.9 % w/w
same,Purity by HPLC,"[10]; 40° C./75% RH, 3 months",99.71 area %
same,Solid form of compound A by XRPD,"[10]; 40° C./75% RH, 3 months",Conforms to
same,Total impurities,"[10]; 40° C./75% RH, 3 months",0.29 area %
same,Water by Karl Fischer analysis,"[10]; 40° C./75% RH, 3 months",0.1 % w/w
same,Appearance,"[10]; 40° C./75% RH, Initial",Off-white
same,Assay by HPLC (on an anhydrous and solvent free basis),"[10]; 40° C./75% RH, Initial",101.0 % w/w
same,DSC Tonset,"[10]; 40° C./75% RH, Initial",151.3 °C
same,DSC Tpeak,"[10]; 40° C./75% RH, Initial",152.9 °C
same,HPLC assay (on an as is basis),"[10]; 40° C./75% RH, Initial",100.9 % w/w
same,Purity by HPLC,"[10]; 40° C./75% RH, Initial",99.70 area %
same,Solid form of compound A by XRPD,"[10]; 40° C./75% RH, Initial",Conforms to
same,Total impurities,"[10]; 40° C./75% RH, Initial",0.30 area %
same,Water by Karl Fischer analysis,"[10]; 40° C./75% RH, Initial",<0.1 % w/w
same,Change in XRPD diffractogram on storage,[10]; 40° C./75% RH,no change
same,solubility,[11],< 500 µg/mL
Ecallantide,Activated clotting time (ACT),[12],increase
same,Contact activated induced coagulation,[13],delay
